From US8546401B2, “5,6-disubstituted oxindole-derivatives and use thereof for treating vasopressin-dependent diseases” (AbbVie Deutschland GmbH & Co. KG, priority 2007, dated 2013)
pKi: −log10 of the molar value.

Legend:
[1] = target: T1, human vasopressin V1b receptor (Homo sapiens, UniProt P47901); assay: Vasopressin V1b receptor binding assay; conditions: CHO-K1 membranes, 3H-AVP displacement
T1 construct: expressed in transfected cells; host or cells: CHO-K1 (cell line hV1b_3H2_CHO), membrane preparation
T1 sequence (P47901 1-424): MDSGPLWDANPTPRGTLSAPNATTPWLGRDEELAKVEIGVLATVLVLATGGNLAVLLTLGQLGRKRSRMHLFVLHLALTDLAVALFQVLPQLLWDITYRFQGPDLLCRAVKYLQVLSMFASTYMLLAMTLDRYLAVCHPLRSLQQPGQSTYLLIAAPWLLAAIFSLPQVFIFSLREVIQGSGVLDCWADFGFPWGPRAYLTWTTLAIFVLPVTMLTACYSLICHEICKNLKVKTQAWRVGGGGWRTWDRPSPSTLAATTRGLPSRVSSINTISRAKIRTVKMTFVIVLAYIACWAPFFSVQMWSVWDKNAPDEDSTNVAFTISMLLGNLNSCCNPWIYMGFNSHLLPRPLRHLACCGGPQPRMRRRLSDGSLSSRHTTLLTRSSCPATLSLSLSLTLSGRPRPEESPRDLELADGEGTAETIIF
Method: 1. Vasopressin V1b Receptor Binding Assay:
The test substances were dissolved in a concentration of 10^−2 M in DMSO and further diluted to 5×10^−4 M to 5×10^−3 M. These serial DMSO predilutions were diluted 1:10 with assay buffer. The substance concentration was further diluted 1:5 in the assay mixture (2% DMSO in the mixture).
(§1) CHO-K1 cells with stably expressed human vasopressin V1b receptor (clone 3H2) were harvested and homogenized in 50 mM Tris-HCl and in the presence of protease inhibitors (Roche complete Mini #1836170) using a Polytron homogenizer at intermediate setting for 2×10 seconds, and subsequently centrifuged at 40 000×g for 1 h. The membrane pellet was again homogenized and centrifuged as described and subsequently taken up in 50 mM Tris-HCl, pH 7.4, homogenized and stored in aliquots frozen in liquid nitrogen at −190° C.
(§2) The binding assay was carried out by the method based on that of Tahara et al. (Tahara A et al., Brit. J. Pharmacol. 125, 1463-1470 (1998)).
(§3) The incubation buffer was: 50 mM Tris, 10 mM MgCl2, 0.1% BSA, pH 7.4.
In the assay mixture (250 μl), membranes (50 μg/ml protein in incubation buffer) from CHO-K1 cells with stably expressed human V1b receptors (cell line hV1b—3H2_CHO) were incubated with 1.5 nM ^3H-AVP (8-Arg-vasopressin, PerkinElmer #18479) in incubation buffer (50 mM Tris, 10 mM MgCl2, 0.1% BSA, pH 7.4) (total binding) or additionally with increasing concentrations of test substance (displacement experiment). The nonspecific binding was determined with […] (Bachem #H1780). All determinations were carried out as triplicate determinations. After incubation (60 minutes at room temperature), the free radioligand was filtered off by vacuum filtration (Skatron cell harvester 7000) through Wathman GF/B glass fiber filter mats, and the filters were transferred into scintillation vials. The liquid scintillation measurement took place in a model 2000 or 2200CA Tricarb instrument (Packard). Conversion of the measured cpm into dpm was carried out with the aid of a standard quench series.
(§4) The binding parameters were calculated by nonlinear regression in SAS. The algorithms of the program operate in analogy to the LIGAND analysis program (Munson P J and Rodbard D, Analytical Biochem. 107, 220-239 (1980)). The Kd of ^3H-AVP for the recombinant human V1b receptors is 0.4 nM and was used to determine the Ki.

human oxytocin receptors = target: T2, human oxytocin receptors (Homo sapiens, UniProt P30559); assay: Oxytocin receptor binding assay; conditions: selectivity quotient
T2 construct: expressed in transfected cells; host or cells: HEK-293, transient expression; lysed and homogenized cells
T2 sequence (P30559 1-389): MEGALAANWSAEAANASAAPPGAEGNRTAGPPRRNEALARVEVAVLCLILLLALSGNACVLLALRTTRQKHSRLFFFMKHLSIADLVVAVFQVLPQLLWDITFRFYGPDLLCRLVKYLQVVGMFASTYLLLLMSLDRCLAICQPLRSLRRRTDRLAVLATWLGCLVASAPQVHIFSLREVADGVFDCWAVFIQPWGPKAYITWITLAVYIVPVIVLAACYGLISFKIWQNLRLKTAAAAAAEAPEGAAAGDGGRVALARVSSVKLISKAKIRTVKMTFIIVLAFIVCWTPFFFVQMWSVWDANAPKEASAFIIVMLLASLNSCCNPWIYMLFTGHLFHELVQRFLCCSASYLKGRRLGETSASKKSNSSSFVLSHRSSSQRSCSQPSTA
Method: 4. Oxytocin Receptor Binding Assay
The substances were dissolved in a concentration of 10^−2 M in DMSO and diluted with incubation buffer (50 mM Tris, 10 mM MgCl2, 0.1% BSA, pH 7.4).
Confluent HEK-293 cells with transiently expressing recombinant human oxytocin receptors were centrifuged at 750×g at room temperature for 5 minutes. The residue was taken up in ice-cold lysis buffer (50 mM Tris-HCl, 10% glycerol, pH 7.4 and Roche complete protease inhibitor) and subjected to an osmotic shock at 4° C. for 20 minutes. The lyzed cells were then centrifuged at 750×g at 4° C. for 20 minutes, the residue was taken up in incubation buffer, and aliquots of 10^7 cells/ml were prepared. The aliquots were frozen at −80° C. until used.
On the day of the experiment, the cells were thawed, diluted with incubation buffer and homogenized using a Multipette Combitip (Eppendorf, Hamburg). The reaction mixture of 0.250 ml was composed of 2 to 5×10^4 recombinant cells, 3-4 nM ^3H-oxytocin (PerkinElmer, NET 858) in the presence of test substance (inhibition plot) or only incubation buffer (total binding). The nonspecific binding was determined with 10^−6 M oxytocin (Bachem AG, H2510). Triplicate determinations were set up. Bound and free radioligand were separated by filtration under vacuum with Whatman GF/B glass fiber filters with the aid of a Skatron cell harvester 7000. The bound radioactivity was determined by liquid scintillation measurement in a Tricarb Beta counter, model 2000 or 2200CA (Packard).
The binding parameters were calculated by nonlinear regression analysis (SAS) in analogy to the LIGAND program of Munson and Rodbard (Analytical Biochem 1980; 107: 220-239). The Kd of ^3H-oxytocin for the recombinant hOT receptors is 7.6 nM and was used to determine the Ki.

[2] = target: T3, human vasopressin V1a receptor (Homo sapiens, UniProt P37288); assay: Vasopressin V1a receptor binding assay; conditions: selectivity quotient, human receptors
T3 construct: expressed in transfected cells; host or cells: CHO-K1 (cell line hV1a_5_CHO), membrane preparation
Method: 2. Vasopressin V1a Receptor Binding Assay:
The test substances were dissolved in a concentration of 10^−2 M in DMSO. Further dilution of these DMSO solutions took place in incubation buffer (50 mM Tris, 10 mM MgCl2, 0.1% BSA, pH 7.4).
as §1, with “V1a” for “V1b”, “5)” for “3H2)”
as §2, §3
In the assay mixture (250 μl), membranes (20 μg/ml protein in incubation buffer) from CHO-K1 cells with stably expressed human V1a receptors (cell line hV1a—5_CHO) were incubated with 0.04 nM ^125I-AVP (8-Arg-vasopressin, NEX 128) in incubation buffer (50 mM Tris, 10 mM MgCl2, 0.1% BSA, pH 7.4) (total binding) or additionally with increasing concentrations of test substance (displacement experiment). The nonspecific binding was determined with 1 μM AVP (Bachem #H1780). Triplicate determinations were carried out.
After incubation (60 minutes at room temperature), the free radioligand was filtered off by vacuum filtration (Skatron cell harvester 7000) through Wathman GF/B glass fiber filter mats, and the filters were transferred into scintillation vials.
The liquid scintillation measurement took place in a model 2000 or 2200CA Tricarb instrument (Packard). Conversion of the measured cpm into dpm was carried out with the aid of a standard quench series.
as §4, with “^125I-AVP” for “^3H-AVP”, “hV1a” for “human V1b”, “was determined in saturation experiments. A Kd of 1.33” for “is 0.4”, “nM” for “nM and”

T3 sequence (P37288 whole entry): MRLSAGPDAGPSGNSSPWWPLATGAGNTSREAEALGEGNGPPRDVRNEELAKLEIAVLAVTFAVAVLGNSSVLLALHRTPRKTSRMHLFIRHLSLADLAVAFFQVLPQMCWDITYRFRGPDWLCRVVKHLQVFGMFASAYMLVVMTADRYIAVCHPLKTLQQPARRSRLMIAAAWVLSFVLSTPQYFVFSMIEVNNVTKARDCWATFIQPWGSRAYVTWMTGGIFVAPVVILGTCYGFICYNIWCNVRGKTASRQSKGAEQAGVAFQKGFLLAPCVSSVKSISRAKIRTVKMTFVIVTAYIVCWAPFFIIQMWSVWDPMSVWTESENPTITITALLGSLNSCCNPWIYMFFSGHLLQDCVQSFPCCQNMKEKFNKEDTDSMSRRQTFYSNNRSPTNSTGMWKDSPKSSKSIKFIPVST

Structure (SMILES) | pKi [1] | Ki(h − OT)/Ki(h − V1b)* (human oxytocin receptors) | Ki(h − V1a)/Ki(h − V1b)* [2]
CCOc1ncccc1C1(NC(=O)N2CCC(N3CCN(CC)CC3)CC2)C(=O)N(S(=O)(=O)c2ccc(OC)cc2OC)c2cc(F)c(C#N)cc21 (stereo not drawn) [Example 4, 4-(4-Ethylpiperazin-1-yl)piperidine-1-[5-cyano-1-(2,4-dimethoxyphenylsulfonyl)-3-(2-ethoxypyridin-3-yl)-6-fluoro-2-oxo-2,3-dihydro-1H-indol-3-yl]carboxamide] | > 9.00 | +++ (>75) | ++ (25-75)
CCOc1ncccc1C1(NC(=O)N2CCN(C3CCN(C)CC3)CC2)C(=O)N(S(=O)(=O)c2ccc(OC)cc2)c2cc(F)c(C#N)cc21 (stereo not drawn) [Example 5, 4-(1-Methylpiperidin-4-yl)piperazine-1-[5-cyano-3-(2-ethoxypyridin-3-yl)-6-fluoro-1-(4-methoxyphenylsulfonyl)-2-oxo-2,3-dihydro-1H-indol-3-yl]carboxamide] | 8.00 to 9.00 | +++ (>75) | +++ (>75)
CCOc1ccccc1C1(NC(=O)N2CCN(C3CCN(C)CC3)CC2)C(=O)N(S(=O)(=O)c2ccc(OC)cc2)c2cc(F)c(C#N)cc21 (stereo not drawn) [Example 10, 4-(1-Methylpiperidin-4-yl)piperazine-1-[5-cyano-3-(2-ethoxyphenyl)-6-fluoro-1-(4-methoxyphenylsulfonyl)-2-oxo-2,3-dihydro-1H-indol-3-yl]carboxamide] | 8.00 to 9.00 | + (10-<25) | ++ (25-75)
CCOc1ccccc1C1(NC(=O)N2CCN(C3CCN(CC)CC3)CC2)C(=O)N(S(=O)(=O)c2ccc(OC)cc2OC)c2cc(F)c(C#N)cc21 (stereo not drawn) [Example 11, 4-(1-Ethylpiperidin-4-yl)piperazine-1-[5-cyano-1-(2,4-dimethoxyphenylsulfonyl)-3-(2-ethoxyphenyl)-6-fluoro-2-oxo-2,3-dihydro-1H-indol-3-yl]carboxamide] | > 9.00 | +++ (>75) | +++ (>75)

Next, values leading:

pKi [1] | Ki(h − OT)/Ki(h − V1b)* (human oxytocin receptors) | Ki(h − V1a)/Ki(h − V1b)* [2] | Structure (SMILES)
8.00 to 9.00 | ++ (25-75) | +++ (>75) | CCOc1ncccc1C1(OC(=O)N2CCN(C3CCN(C)CC3)CC2)C(=O)N(S(=O)(=O)c2ccc(OC)cc2OC)c2cc(F)c(F)cc21 (stereo not drawn) [Example 51, 1-(2,4-dimethoxyphenylsulfonyl)-3-(2-ethoxypyridin-3-yl)-5,6-difluoro-2-oxo-2,3-dihydro-1H-indol-3-yl 4-(1-methylpiperidin-4-yl)piperazine-1-carboxylate]
8.00 to 9.00 | +++ (>75) | ++ (25-75) | CCOc1ccccc1C1(NC(=O)N2CCN(C3CCN(CC)CC3)CC2)C(=O)N(S(=O)(=O)c2ccccc2)c2cc(F)c(C#N)cc21 (stereo not drawn) [Example 13, 4-(1-Ethylpiperidin-4-yl)piperazine-1-[1-phenylsulfonyl-5-cyano-3-(2-ethoxyphenyl)-6-fluoro-2-oxo-2,3-dihydro-1H-indol-3-yl]carboxamide]
8.00 to 9.00 | +++ (>75) | +++ (>75) | CCOc1ncccc1C1(NC(=O)N2CCN(C3CCN(CC)CC3)CC2)C(=O)N(S(=O)(=O)c2ccc(OC)cc2OC)c2cc(F)c(F)cc21 (stereo not drawn) [Example 33, 4-(1-Ethylpiperidin-4-yl)piperazine-1-[1-(2,4-dimethoxyphenylsulfonyl)-3-(2-ethoxy-pyridin-3-yl)-5,6-difluoro-2-oxo-2,3-dihydro-1H-indol-3-yl]carboxamide]
8.00 to 9.00 | +++ (>75) | + (10-<25) | CCOc1ncccc1C1(NC(=O)N2CCN(C3CCN(CC)CC3)CC2)C(=O)N(S(=O)(=O)c2ccccc2)c2cc(F)c(Cl)cc21 (stereo not drawn) [Example 22, 4-(1-Ethylpiperidin-4-yl)piperazine-1-[1-phenylsulfonyl-5-chloro-3-(2-ethoxypyridin-3-yl)-6-fluoro-2-oxo-2,3-dihydro-1H-indol-3-yl]carboxamide]
7.00 to 8.00 | + (10-<25) | +++ (>75) | CCOc1ncccc1C1(NC(=O)N2CCN(C3CCN(C)CC3)CC2)C(=O)N(S(=O)(=O)c2ccc(OC)cc2OC)c2cc(F)c(F)cc21 (stereo not drawn) [Example 31, 4-(1-Methylpiperidin-4-yl)piperazine-1-[1-(2,4-dimethoxyphenylsulfonyl)-3-(2-ethoxy-pyridin-3-yl)-5,6-difluoro-2-oxo-2,3-dihydro-1H-indol-3-yl]carboxamide]
